Results on 31 molecules are retold here after patent publication US20210386721A1, “SUBSTITUTED PHENYLPROPENYL PYRIDINE DERIVATIVES, THEIR PREPARATION AND PHARMACEUTICAL APPLICATIONS” (SHANGHAI HAIYAN PHARMACEUTICAL TECHNOLOGY CO., LTD., priority 2019, published 2021).

For the assay, the target named is T1, PD-1/PD-L1 (Homo sapiens, UniProt Q9NZQ7).
T1 construct: purchased Cisbio 63ADK000CPDPEB
T1 sequence (Q9NZQ7 19-238 limits assumed): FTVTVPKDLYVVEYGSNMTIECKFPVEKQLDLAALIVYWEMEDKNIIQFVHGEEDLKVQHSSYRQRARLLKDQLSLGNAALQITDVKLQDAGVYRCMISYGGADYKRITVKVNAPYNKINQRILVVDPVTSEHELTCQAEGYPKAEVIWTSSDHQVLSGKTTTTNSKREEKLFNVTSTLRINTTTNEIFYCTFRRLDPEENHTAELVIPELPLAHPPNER
The assay is described as follows: PD-1/PD-L1 binding assay (HTRF, PPI-HTRF). As to conditions: HTRF PD1/PD-L1 binding assay kit; 10 nM Tag1-PD-L1; 25° C. As for the experimental part:
Assay 1 PD-1/PD-L1 Binding Assay
DMSO is from Sigma, Cat No: D5879; 384-well small volume plate (white) is from Greiner, Cat No: 784075; Anti-PD1 blocking antibody (IC50: 10 nM) is from Cisbio, Cat No: 64CUS000C-1a; Anti-PDL1 blocking antibody (IC50: 0.3 nM) is from Cisbio, Cat No: 64CUS000C-1b; HTRF PD1/PD-L1 binding assay kit is from Cisbio, Cat No: 63ADK000CPDPEB.
1. Prepare the compound to be tested at 2x concentration into 1× reaction buffer containing 4% DMSO;
2. Tag1-PD-L1 protein and Tag2-PD1 protein were prepared in 1× reaction buffer at concentrations of […] and 10 nM, respectively. The final reaction concentration of the experiment was 10 nM Tag1-PD-L1 and 2 nM […];
3. anti-Tag1-Eu3+ antibody is prepared in 1x concentration detection buffer at a ratio of 1:100;
4. anti-Tag2-XL665 antibody is prepared in 1x concentration detection buffer at a ratio of 1:25; Experimental steps
1. 5 μL of compounds to be tested (2×) was added;
2. 2.5 ul Tag1-PD-L1 protein and 2.5 ul Tag2-PD1 protein were added respectively, and the total reaction system is 10 ul, and reacted at 25° C. for 15 minutes;
3. 5 ul anti-Tag1-Eu3+ antibody and 5 ul anti-Tag2-XL665 antibody were added respectively, and reacted at 25° C. for 16 hours;
4. The fluorescence microplate reader HTRF reading program was used to read two readings at 665 nm and 620 nm, the ratio of the two wavelengths was used to judge the activity of the compound, and the IC50 of the compound to be tested is calculated by XLFIT5.0 (IDBS).
Background: TR-FRET usually uses a lanthanide donor and a delayed reading to cut background.
As usually defined, the IC50 is the point on the concentration scale where inhibition reaches its midpoint. `Cc1c(NC(=O)c2ccc(CNCCO)cn2)cccc1-c1ccnc(/C=C/c2ccc3c(c2)CCN(CC(=O)O)C3)c1C#N` [Z-3, (E)-2-(6-(2-(3-cyano-4-(3-(5-(((2-hydroxyethyl)amino)methyl)picolinamido)-2-methylphenyl)pyridin-2-yl)vinyl)-3,4-dihydroisoquinolin-2(1H)-yl)acetic Acid]: the IC50 was determined as 9 nM.
As to `Cc1cc(/C=C/c2nccc(-c3cccc(NC(=O)c4ccc(CNCCO)cn4)c3C)c2C#N)c(F)cc1CNCCO` [Z-4, (E)-N-(3-(3-cyano-2-(2-fluoro-4-(((2-hydroxyethyl)amino)methyl)-5-methylstyryl)pyridin-4-yl)-2-methylphenyl)-5-(((2-hydroxyethyl)amino)methyl)picolinamide], the IC50 is less than 1 nM.
For `Cc1cc(/C=C/c2nccc(-c3cccc(NC(=O)c4ccc(CN5CCCC[C@@H]5C(=O)O)cn4)c3C)c2C#N)c(Cl)cc1CN1CC[C@@H](O)C1` [Z-6, (R)-1-((6-((3-(2-((E)-2-chloro-4-(((R)-3-hydroxypyrrolidin-1-yl)methyl)-5-methylstyryl)-3-cyanopyridin-4-yl)-2-methylphenyl)carbamoyl)pyridin-3-yl)methyl)piperidine-2-carboxylic Acid], the IC50 was found to be 2 nM. This counts as single-digit nanomolar.
On to `Cc1cc(/C=C/c2nccc(-c3cccc(Nc4nccc5cc(CN6CC[C@@H](O)C6)cnc45)c3C)c2C#N)c(Cl)cc1CN1CCCC[C@H]1C(=O)O` [Z-7, (S)-1-(5-chloro-4-((E)-2-(3-cyano-4-(3-((3-(((R)-3-hydroxypyrrolidin-1-yl)methyl)-1,7-naphthyridin-8-yl)amino)-2-methylphenyl)pyridin-2-yl)vinyl)-2-methylbenzyl)piperidine-2-carboxylic Acid], for which the IC50 stood at 1 nM. This IC50 is about 2-fold lower than that of the molecule before.
Molecule `COc1cc(/C=C/c2cccc(-c3cccc(Nc4nccc5cc(CN6CC[C@@H](O)C6)c(C(F)(F)F)nc45)c3C)c2C)c(C(F)(F)F)cc1CN1CC[C@@H](C(=O)O)C1` [Z-10, (R)-1-(4-((E)-2-(3′-((3-(((R)-3-hydroxypyrrolidin-1-yl)methyl)-2-(trifluoromethyl)-1,7-naphthyridin-8-yl)amino)-2,2′-dimethyl-[1,1′-biphenyl]-3-yl)vinyl)-2-methoxy-5-(trifluoromethyl)benzyl)pyrrolidine-3-carboxylic Acid] had an IC50 of 3 nM.
In turn, `COc1cc(/C=C/c2nccc(-c3cccc(Nc4nccc5cc(CN6CC[C@@H](O)C6)cnc45)c3C)c2C#N)c(C(F)(F)F)cc1CN1CC[C@@H](C(=O)O)C1` [Z-13] yielded an IC50 of 2 nM.
Molecule `COc1cc(/C=C/c2cccc(-c3cccc(Nc4n[nH]c5ccc(CN6CC[C@@H](O)C6)cc45)c3C)c2C)c(C(F)(F)F)cc1CN1CC[C@@H](C(=O)O)C1` [Z-15, (R)-1-(4-((E)-2-(3′-((5-(((R)-3-hydroxypyrrolidin-1-yl)methyl)-1H-indazole-3-yl)amino)-2,2′-dimethyl-[1,1′-biphenyl]-3-yl)vinyl)-2-methoxy-5-(trifluoromethyl)benzyl)pyrrolidine-3-carboxylic Acid] had an IC50 of 3 nM.
As for `COc1cc(/C=C/c2cccc(-c3cccc(-c4nc5cc(CN6CC[C@@H](O)C6)ccc5o4)c3C)c2C)c(C(F)(F)F)cc1CN1CC[C@@H](C(=O)O)C1` [Z-16], the IC50 worked out at 1 nM. This IC50 lies about 3-fold lower than the previous one.
Consider `Cc1cc(/C=C/c2cccc(-c3cccc(-c4nc5cc(CN6CC[C@@H](O)C6)ccc5o4)c3C)c2C)c(C(F)(F)F)cc1CN1CC[C@@H](C(=O)O)C1` [Z-17], for which the IC50 worked out at 1 nM. In other words, the single-digit nanomolar range.
`COc1cc(/C=C/c2cccc(-c3cccc(-c4nc5cc(CN6CC[C@@H](O)C6)ccc5o4)c3C)c2C#N)c(C(F)(F)F)cc1CN1CC[C@@H](C(=O)O)C1` [Z-19]: the IC50 came to 2 nM.
`COc1cc(/C=C/c2cccc(-c3cccc(-c4nc5cc(CN6CC[C@@H](O)C6)ccc5o4)c3C)c2F)c(C(F)(F)F)cc1CN1CC[C@@H](C(=O)O)C1` [Z-20] came in with an IC50 of 2 nM. This lies in the single-digit nanomolar range.
As to `COc1cc(/C=C/c2cccc(-c3cccc(-c4nc5cc(CN6CC[C@@H](O)C6)cc(Cl)c5o4)c3C)c2C)c(C(F)(F)F)cc1CN1CC[C@@H](C(=O)O)C1` [Z-22], the IC50 stood at 2 nM. That is a single-digit nanomolar value.
For `COc1cc(/C=C/c2cccc(-c3cccc(-c4nc5cc(CN6CC[C@@H](C(=O)O)C6)cc(C#N)c5o4)c3C)c2F)c(C(F)(F)F)cc1CN1CC[C@@H](O)C1` [Z-25], the IC50 stood at 1 nM.
Regarding `COc1cc(/C=C/c2cccc(-c3cccc(-c4nc5cc(CN6CC[C@@H](C(=O)O)C6)cc(C#N)c5o4)c3F)c2C)c(C(F)(F)F)cc1CN1CC[C@@H](O)C1` [Z-28], the IC50 turned out to be 5 nM.
Next, `COc1cc(/C=C/c2cccc(-c3cccc(-c4nc5cc(CN6CC[C@@H](C(=O)O)C6)ccc5o4)c3C)c2C)c(C(F)(F)F)cc1CN1CC[C@H](O)C1` [Z-31]: 2 nM.
Regarding `COc1cc(/C=C/c2cccc(-c3cccc(-c4nc5cc(CN6CC[C@H](C(=O)O)C6)ccc5o4)c3C)c2C)c(C(F)(F)F)cc1CN1CC[C@H](O)C1` [Z-32], the IC50 was found to be 2 nM. That is a single-digit nanomolar value.
Consider `COc1cc(/C=C/c2cccc(-c3cccc(-c4nc5cc(CN6CC[C@@H](O)C6)cc(C#N)c5o4)c3C)c2C)c(C(F)(F)F)cc1CN1CC[C@@H](O)C1` [Z-37], for which the IC50 was determined as 1 nM.
Regarding `COc1cc(/C=C/c2cccc(-c3cccc(-c4nc5cc(CN6CCC[C@H]6C(=O)O)cc(C#N)c5o4)c3C)c2C)c(C(F)(F)F)cc1CN1CC[C@@H](O)C1` [Z-39], the IC50 amounted to 1 nM.
Next, `Cc1cc(/C=C/c2nccc(-c3cccc(-c4nc5cc(CN6CC[C@@H](O)C6)cc(Cl)c5o4)c3C)c2C#N)c(Cl)cc1CN1CC[C@@H](C(=O)O)C1` [Z-46]: 1 nM; `Cc1cc(/C=C/c2nccc(-c3cccc(-c4nc5cc(CN6CC[C@@H](O)C6)ccc5o4)c3C)c2C#N)c(Cl)cc1CN1CC[C@@H](C(=O)O)C1` [Z-47]: 1 nM; `Cc1cc(/C=C/c2nccc(-c3cccc(-c4nc5cc(CN6CC[C@@H](C(=O)O)C6)cc(Cl)c5o4)c3C)c2C#N)c(C(F)(F)F)cc1CN1CC[C@@H](O)C1` [Z-48]: 2 nM.
`COc1cc(/C=C/c2nccc(-c3cccc(-c4nc5cc(CN6CC[C@@H](C(=O)O)C6)cc(C#N)c5o4)c3C)c2C#N)c(C(F)(F)F)cc1CN1CC[C@@H](O)C1` [Z-50] had an IC50 of 1 nM.
In turn, `COc1cc(/C=C/c2cccc(-c3cccc(-c4nc(OC)c(CNC[C@@H]5CCC(=O)N5)cc4Cl)c3C)c2C)c(C(F)(F)F)cc1CN1CC[C@@H](C(=O)O)C1` [Z-55] showed an IC50 of 3 nM.
In the case of `Cc1cc(/C=C/c2nccc(-c3cccc(-c4nc5c(s4)CN(C(=O)CN(C)C)CC5)c3C)c2C#N)c(Cl)cc1CN1CC[C@@H](C(=O)O)C1` [Z-61, (R,E)-1-(5-chloro-4-(2-(3-cyano-4-(3-(5-(dimethylglycyl)-4,5,6,7-tetrahydrothiazolo [5,4-c]pyridin-2-yl)-2-methylphenyl)pyridin-2-yl)vinyl)-2-methylbenzyl)pyrrolidine-3-carboxylic Acid], the IC50 was found to be 2 nM.
Turning to `COc1cc(/C=C/c2cccc(-c3cccc(OC4CCc5cc(CN6CC[C@@H](O)C6)ccc54)c3Cl)c2C)c(C(F)(F)F)cc1CN1CC[C@@H](C(=O)O)C1` (stereo partly drawn) [Z-62, (3R)-1-(4-((E)-2-(2′-chloro-3′-((5-(((R)-3-hydroxypyrrolidin-1-yl)methyl)-2,3-dihydro-1H-inden-1-yl)oxy)-2-methyl-[1,1′-biphenyl]-3-yl)vinyl)-2-methoxy-5-(trifluoromethyl)benzyl)pyrrolidine-3-carboxylic Acid], the IC50 is 3 nM. Compared with the last molecule, the IC50 is about 1.5-fold higher.
For the molecule `Cc1c(NC(=O)c2ccc(CNCCO)cn2)cccc1-c1ccnc(/C=C/c2ccc3c(c2)CCN(CCO)C3)c1C#N` [Z-63], the IC50 was 32 nM. This IC50 is about 11-fold higher than that of the molecule before.
As to `Cc1c(NC(=O)c2ccc(CN3CC[C@@H](O)C3)cn2)cccc1-c1ccnc(/C=C/c2cc3nc(CN4CC[C@H](C(=O)O)C4)oc3cc2Cl)c1C#N` [Z-64], the IC50 was found to be 18 nM.
In the case of `Cc1cc(/C=C/c2nccc(-c3cccc(NC(=O)c4ccc(CN5CC[C@@H](O)C5)cn4)c3C)c2C)c(Cl)cc1CN1CC[C@@H](C(=O)O)C1` [Z-65], the IC50 was less than 1 nM.
In turn, `Cc1cc(/C=C/c2nccc(-c3cccc(NC(=O)c4nc5c(n4C)CCN(C)C5)c3C)c2C#N)c(Cl)cc1CN1CCCC[C@H]1C(=O)O` [Z-66, (S,E)-1-(5-chloro-4-(2-(3-cyano-4-(3-(1,5-dimethyl-4,5,6,7-tetrahydro-1H-imidazo[4,5-c]pyridine-2-carboxamido)-2-methylphenyl)pyridin-2-yl)vinyl)-2-methylbenzyl)piperidine-2-carboxylic Acid] yielded an IC50 of 2 nM.
`Cc1cc(/C=C/c2nccc(-c3cccc(NC(=O)c4ccc(CN5CC[C@@H](O)C5)cn4)c3C)c2C#N)c(Cl)cc1CN1CCC(C)(C(=O)O)C1` (stereo partly drawn) [Z-67, 1-(5-chloro-4-((E)-2-(3-cyano-4-(3-(5-(((R)-3-hydroxypyrrolidin-1-yl)methyl)picolinamido)-2-methylphenyl)pyridin-2-yl)vinyl)-2-methylbenzyl)-3-methylpyrrolidine-3-carboxylic Acid] had an IC50 of 1 nM.
`Cc1cc(/C=C/c2nccc(-c3cccc(NC(=O)c4ccc(CN5CC[C@@H](O)C5)cn4)c3C)c2C#N)c(Cl)cc1CN1CC[C@@H](C(=O)O)C1` [Z-68] showed an IC50 of 1 nM. This counts as single-digit nanomolar.
